# Columns and labels:
# BDNF [1] = test: Pharmacological Test 6: influence of intracellular signaling inhibitors on BDNF expression; assay type: cell-based, human; conditions: SH-SY5Y cells; test substance 10 mNU/mL 24 hours; PD98059 10 μM, LY 294002 15 μM or SB 203580 0.5 μM added 30 minutes before completion; FIG. 7
# Procedure: PD98059 (MEK inhibitor, 10 μM), LY 294002 (PI-3K inhibitor, 15 μM) or SB 203580 (p38 MAPK inhibitor, 0.5 μM) dissolved in a medium was added to a cultured product 30 minutes before completion of the cultivation. After that, the same as in the above Pharmacological Test 1, the extracted total RNA was subjected to a semi-quantitative RT-PCT, the PCR product was separated by agarose gel electrophoresis and the bands of BDNF and cyclophilin were visually detected.
# CREB [2] = test: Inhibition of phosphorylation of CREB by p38MAPK inhibitor; assay type: cell-based
# ERK1/2 = test: Inhibition of phosphorylation of ERK1/2 by MEK1/2 inhibitor; assay type: cell-based
# BDNF [3] = test: Pharmacological Test 8: influence on TrkB inhibition (BDNF expression, semi-quantitative RT-PCR); assay type: cell-based, human; conditions: SH-SY5Y cells; test substance 10 mNU/mL 24 hours; K252a 500 nM or αTrkB 20 μg/mL added 30 minutes before completion; FIG. 9
# Procedure: K252a (tyrosine kinase inhibitor, 500 nM) or rabbit IgG of human TrkB-specific antibody (αTrkB, 20 μg/mL) was added to the cultured product 30 minutes before completion of the cultivation. After that, the same as in the above Pharmacological Test 1, the extracted total RNA was subjected to a semi-quantitative RT-PCR, the PCR product was separated by agarose electrophoresis and the bands of BDNF and cyclophilin A were visually detected.
# CREB [4] = test: Pharmacological Test 5: effect to CREB pathway (immuno-blotting), phosphorylated CREB; assay type: cell-based; conditions: SH-SY5Y cells; BDNF given from outside of the cells (human recombinant BDNF 50 pg/mL; 10 or 30 minutes)
# Description: (§1) Intracellular signaling molecules were detected by an immuno-blotting method using each of various specific antibodies produced to CREB (MAB 5432; Millipore), phosphorylated CREB (P-CREB: Clone 10E9; Millipore), P42/44 MAP kinase (ERK1/2; Cell Signaling Technology), phosphorylated P42/44 MAP kinase (P-MAPK: Tyr202/Tyr204; Cell Signaling Technology) and c-Fos (Gene Tex). […] After that, the cells were scraped off using a cell scraper (BD Bioscience), immediately washed with ice-cooled PBS and subjected to cytolysis according to a method of Mutoh, et al. (Proceedings of the National Academy of Sciences of the United States of America, vol. 92, pages 5087 to 5091, 1995). The cytolyzed product was subjected to an SDS-PAGE electrophoresis of 4 to 20% gel (ePAGEL; Atto Chemicals) and blotted to a PDVF (polyvinylidene fluoride) membrane. After said membrane was subjected to a blocking for 1 hour using Tris buffer physiological saline (TBS; 20 mM Tris-HCl, pH 7.5, 0.15M NaCl) containing 3% fat-free milk and 0.1% Tween 20 (TBS-T), a reaction with the primary antibody and the HRP-labeled secondary antibody was conducted in TBS-T for one hour at room temperature. Immuno-reactive bands of CREB, phosphorylated CREB, P42/44 MAP kinase, phosphorylated P42/44 MAP kinase and c-Fos were visually detected by a detection system by means of […] (ECL; GE Healthcare).
# [5] = system: p42/44MAP kinase (ERK1/2); test: Pharmacological Test 5: effect to CREB pathway (immuno-blotting), phosphorylated P42/44 MAP kinase; assay type: cell-based; conditions: SH-SY5Y cells; BDNF given from outside of the cells (human recombinant BDNF 50 pg/mL; 10 or 30 minutes)
# Description: as §1
molecule,measurement,setting,value
C[S+]([O-])c1ccc(-c2nc(-c3ccncc3)c(-c3ccc(F)cc3)[nH]2)cc1 (stereo not shown) [SB203580],enhancement of BDNF expression by the test substance in presence of inhibitor,BDNF [1],suppressed
same,phosphorylation of CREB,CREB [2],inhibited
COc1cccc(-c2cc(=O)c3ccccc3o2)c1N [PD98059],enhancement of BDNF expression by the test substance in presence of inhibitor,BDNF [1],suppressed
same,phosphorylation of ERK1/2,ERK1/2,inhibited
COC(=O)[C@@]1(O)C[C@H]2O[C@]1(C)n1c3ccccc3c3c4c(c5c6ccccc6n2c5c31)C(=O)NC4 [Example K252a],BDNF expression enhanced by the test substance in presence of inhibitor or antibody,BDNF [3],almost completely suppressed
"BDNF: human recombinant BDNF (Peprotech) given from outside of the cells (protein, UniProt P23560 19-247, looked up) Neurotrophic factor BDNF …: APMKEANIRGQGGLAYPGVRTHGTLESVNGPKAGSRGLTSLADTFEHVIEELLDEDQKVRPNEENNKDADLYTSRVMLSSQVPLEPPLLFLLEEYKNYLDAANMSMRVRRHSDPARRGELSVCDSISEWVTAADKKTAVDMSGGTVTVLEKVPVSKGQLKQYFYETKCNPMGYTKEGCRGIDKRHWNSQCRTTQSYVRALTMDSKKRIGWRFIRIDTSCVCTLTIKRGR",phosphorylation of CREB,CREB [4],enhanced
same,phosphorylation of 42/44MAP kinase,[5],enhanced

# From patent US9447466B2 (NIPPON ZOKI PHARMACEUTICAL CO., LTD., priority 2010, dated 2016)
